{"source": "patent US20240210412A1", "about": "“SULFONYL-TRIAZOLE COMPOUNDS USEFUL AS LIGANDS AND INHIBITORS OF PROSTAGLANDIN REDUCTASE 2” (University of Virginia Patent Foundation, priority 2021, published 2024)", "assay_in_all_cases": "SILAC LC-MS ABPP", "format_in_all_cases": "cell-based", "conditions_in_all_cases": "25 μM 2 h, live DM93 cells", "key": {"P51784": {"molecular_target": "T1, P51784 (Homo sapiens, UniProt P51784)", "T1 construct": "endogenous in cells; host or cells: DM93 cells (SILAC)", "T1 sequence (P51784 whole entry)": "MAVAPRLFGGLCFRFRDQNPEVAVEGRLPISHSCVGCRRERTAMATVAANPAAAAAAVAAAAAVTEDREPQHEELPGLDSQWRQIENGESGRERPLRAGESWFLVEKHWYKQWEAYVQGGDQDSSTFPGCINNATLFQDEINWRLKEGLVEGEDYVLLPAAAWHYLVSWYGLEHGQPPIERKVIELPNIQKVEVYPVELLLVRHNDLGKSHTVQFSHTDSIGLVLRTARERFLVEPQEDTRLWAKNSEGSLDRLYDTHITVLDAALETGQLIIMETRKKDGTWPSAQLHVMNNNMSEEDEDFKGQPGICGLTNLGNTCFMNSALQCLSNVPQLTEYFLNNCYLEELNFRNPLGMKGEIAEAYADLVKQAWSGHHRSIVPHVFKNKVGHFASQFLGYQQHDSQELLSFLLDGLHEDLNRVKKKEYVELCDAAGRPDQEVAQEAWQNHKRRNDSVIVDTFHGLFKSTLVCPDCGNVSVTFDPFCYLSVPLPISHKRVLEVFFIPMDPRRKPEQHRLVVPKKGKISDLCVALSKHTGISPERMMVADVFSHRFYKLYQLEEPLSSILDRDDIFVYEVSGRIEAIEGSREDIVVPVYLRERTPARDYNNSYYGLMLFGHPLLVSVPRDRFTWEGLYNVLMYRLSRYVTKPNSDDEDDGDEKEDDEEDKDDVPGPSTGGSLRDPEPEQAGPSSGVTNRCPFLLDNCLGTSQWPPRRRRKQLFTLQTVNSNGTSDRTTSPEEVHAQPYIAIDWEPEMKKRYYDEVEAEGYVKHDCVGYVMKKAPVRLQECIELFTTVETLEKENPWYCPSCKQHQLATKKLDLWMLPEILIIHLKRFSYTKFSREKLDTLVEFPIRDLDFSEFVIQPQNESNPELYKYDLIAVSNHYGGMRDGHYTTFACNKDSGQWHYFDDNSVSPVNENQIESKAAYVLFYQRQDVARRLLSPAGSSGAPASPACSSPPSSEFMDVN", "outline": "(§1)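 Ligand engagement is measured as loss of HHS-475 probe labelling at specific tyrosines. SILAC DM93 melanoma cells were treated in situ (25 μM ligand vs DMSO, 2 h, 37 °C; then 100 μM probe, 2 h), and modified peptides were quantified by high-resolution LC-MS/MS after desthiobiotin tagging and avidin capture.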"}, "P53621": {"molecular_target": "T2, P53621 (Homo sapiens, UniProt P53621)", "T2 construct": "endogenous in cells; host or cells: DM93 cells (SILAC)", "outline": "as §1"}, "Q14978": {"molecular_target": "T3, Q14978 (Homo sapiens, UniProt Q14978)", "T3 construct": "performing SuTEx compound screening directly in cells; endogenous in cells; host or cells: DM93 cells (SILAC), soluble fraction", "outline": "as §1"}, "Q15020": {"molecular_target": "T4, Q15020 (Homo sapiens, UniProt Q15020)", "T4 construct": "performing SuTEx compound screening directly in cells; endogenous in cells; host or cells: DM93 cells (SILAC), soluble fraction", "T4 sequence (Q15020 whole entry)": "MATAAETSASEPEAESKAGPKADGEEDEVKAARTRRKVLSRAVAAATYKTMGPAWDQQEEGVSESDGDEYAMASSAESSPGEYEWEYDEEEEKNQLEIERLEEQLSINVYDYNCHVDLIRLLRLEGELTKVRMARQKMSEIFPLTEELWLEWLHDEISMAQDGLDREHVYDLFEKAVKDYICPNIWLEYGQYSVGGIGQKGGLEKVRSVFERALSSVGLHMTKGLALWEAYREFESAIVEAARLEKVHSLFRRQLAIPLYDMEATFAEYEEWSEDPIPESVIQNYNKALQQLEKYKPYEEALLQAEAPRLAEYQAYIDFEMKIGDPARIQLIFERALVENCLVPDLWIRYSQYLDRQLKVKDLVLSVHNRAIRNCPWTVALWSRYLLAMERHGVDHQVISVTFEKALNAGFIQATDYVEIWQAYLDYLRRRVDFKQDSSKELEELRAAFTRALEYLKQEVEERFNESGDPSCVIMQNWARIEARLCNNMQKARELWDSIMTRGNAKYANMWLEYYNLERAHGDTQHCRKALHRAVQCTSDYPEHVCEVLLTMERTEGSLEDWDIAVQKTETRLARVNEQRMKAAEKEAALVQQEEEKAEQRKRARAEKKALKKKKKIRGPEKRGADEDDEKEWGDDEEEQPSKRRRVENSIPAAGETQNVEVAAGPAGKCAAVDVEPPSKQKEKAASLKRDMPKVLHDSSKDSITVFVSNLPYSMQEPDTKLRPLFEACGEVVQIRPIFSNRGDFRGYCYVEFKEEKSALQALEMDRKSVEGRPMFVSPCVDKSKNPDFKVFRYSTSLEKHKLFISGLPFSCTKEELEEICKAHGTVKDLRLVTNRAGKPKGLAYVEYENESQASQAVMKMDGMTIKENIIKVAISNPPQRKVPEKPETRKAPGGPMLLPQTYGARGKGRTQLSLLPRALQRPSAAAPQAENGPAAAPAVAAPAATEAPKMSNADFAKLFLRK", "outline": "as §1"}, "O60506": {"molecular_target": "T5, O60506 (Homo sapiens, UniProt O60506)", "T5 construct": "endogenous in cells; host or cells: DM93", "T5 sequence (O60506 whole entry)": "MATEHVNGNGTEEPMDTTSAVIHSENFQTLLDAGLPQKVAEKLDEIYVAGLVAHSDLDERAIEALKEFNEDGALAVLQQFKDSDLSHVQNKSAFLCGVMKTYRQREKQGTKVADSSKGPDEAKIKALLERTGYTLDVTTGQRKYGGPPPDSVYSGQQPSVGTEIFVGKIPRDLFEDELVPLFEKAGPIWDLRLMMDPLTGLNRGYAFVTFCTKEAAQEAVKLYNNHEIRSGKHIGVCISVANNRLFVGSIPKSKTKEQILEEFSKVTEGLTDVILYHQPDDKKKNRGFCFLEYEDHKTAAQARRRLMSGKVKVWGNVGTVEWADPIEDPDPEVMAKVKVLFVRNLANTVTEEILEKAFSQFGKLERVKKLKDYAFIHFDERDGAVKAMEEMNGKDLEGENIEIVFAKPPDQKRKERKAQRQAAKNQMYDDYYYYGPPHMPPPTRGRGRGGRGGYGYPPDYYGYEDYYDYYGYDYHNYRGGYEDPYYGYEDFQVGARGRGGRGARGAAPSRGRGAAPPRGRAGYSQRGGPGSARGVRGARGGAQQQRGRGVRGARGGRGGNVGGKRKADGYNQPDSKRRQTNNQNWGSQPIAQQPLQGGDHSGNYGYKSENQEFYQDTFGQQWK", "outline": "as §1"}, "P48147": {"molecular_target": "T6, P48147 (Homo sapiens, UniProt P48147)", "T6 construct": "endogenous in cells; host or cells: DM93 cells (SILAC)", "T6 sequence (P48147 whole entry)": "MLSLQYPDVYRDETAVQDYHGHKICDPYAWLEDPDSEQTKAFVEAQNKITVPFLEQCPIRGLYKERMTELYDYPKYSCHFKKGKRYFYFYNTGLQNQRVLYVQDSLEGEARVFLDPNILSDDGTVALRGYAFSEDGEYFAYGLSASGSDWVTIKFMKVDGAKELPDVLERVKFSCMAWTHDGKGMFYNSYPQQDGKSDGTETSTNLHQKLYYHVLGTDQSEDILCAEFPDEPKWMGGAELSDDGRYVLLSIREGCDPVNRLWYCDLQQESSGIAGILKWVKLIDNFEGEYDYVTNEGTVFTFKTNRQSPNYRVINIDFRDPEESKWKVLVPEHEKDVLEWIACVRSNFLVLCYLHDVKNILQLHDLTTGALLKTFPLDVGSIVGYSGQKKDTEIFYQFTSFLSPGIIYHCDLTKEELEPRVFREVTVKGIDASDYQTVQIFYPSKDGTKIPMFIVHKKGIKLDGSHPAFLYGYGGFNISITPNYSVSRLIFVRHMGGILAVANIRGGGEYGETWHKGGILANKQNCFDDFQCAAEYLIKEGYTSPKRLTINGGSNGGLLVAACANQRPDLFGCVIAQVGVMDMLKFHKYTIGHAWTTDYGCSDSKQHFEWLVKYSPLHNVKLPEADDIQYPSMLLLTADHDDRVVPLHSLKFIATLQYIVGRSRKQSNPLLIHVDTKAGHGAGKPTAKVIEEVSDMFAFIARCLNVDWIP", "outline": "as §1"}, "Q00341": {"molecular_target": "T7, Q00341 (Homo sapiens, UniProt Q00341)", "T7 construct": "performing SuTEx compound screening directly in cells; endogenous in cells; host or cells: DM93 cells (SILAC)", "outline": "as §1"}, "Q86XP3": {"molecular_target": "T8, Q86XP3 (Homo sapiens, UniProt Q86XP3)", "T8 construct": "endogenous in cells; host or cells: DM93 cells (SILAC), live-cell treatment", "outline": "as §1"}, "Q99797": {"molecular_target": "T9, Q99797 (Homo sapiens, UniProt Q99797)", "T9 construct": "endogenous in cells; host or cells: DM93 cells (SILAC), treated live; soluble proteome analysed", "T9 sequence (Q99797 36-713)": "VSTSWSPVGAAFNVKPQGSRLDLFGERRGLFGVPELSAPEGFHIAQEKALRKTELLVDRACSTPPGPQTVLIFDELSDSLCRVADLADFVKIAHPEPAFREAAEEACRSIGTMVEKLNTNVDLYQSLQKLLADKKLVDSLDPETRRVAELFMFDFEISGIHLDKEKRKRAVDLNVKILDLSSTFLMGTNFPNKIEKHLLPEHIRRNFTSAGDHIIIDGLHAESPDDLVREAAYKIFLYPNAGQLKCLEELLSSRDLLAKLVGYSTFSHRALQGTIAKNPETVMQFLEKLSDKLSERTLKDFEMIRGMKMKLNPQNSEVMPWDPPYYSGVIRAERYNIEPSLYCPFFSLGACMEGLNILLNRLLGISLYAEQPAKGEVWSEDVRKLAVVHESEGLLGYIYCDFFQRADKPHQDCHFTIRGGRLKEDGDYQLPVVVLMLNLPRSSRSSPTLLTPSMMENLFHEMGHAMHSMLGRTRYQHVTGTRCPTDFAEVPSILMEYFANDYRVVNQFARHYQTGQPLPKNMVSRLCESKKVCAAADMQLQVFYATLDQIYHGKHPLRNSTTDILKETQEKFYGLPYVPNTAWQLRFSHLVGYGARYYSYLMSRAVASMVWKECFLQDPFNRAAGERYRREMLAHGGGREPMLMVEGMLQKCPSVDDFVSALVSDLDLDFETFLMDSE", "outline": "as §1"}, "Q9H3P7": {"molecular_target": "T10, Q9H3P7 (Homo sapiens, UniProt Q9H3P7)", "T10 construct": "endogenous in cells; host or cells: DM93 cells (SILAC), treated live; soluble proteome analysed", "T10 sequence (Q9H3P7 whole entry)": "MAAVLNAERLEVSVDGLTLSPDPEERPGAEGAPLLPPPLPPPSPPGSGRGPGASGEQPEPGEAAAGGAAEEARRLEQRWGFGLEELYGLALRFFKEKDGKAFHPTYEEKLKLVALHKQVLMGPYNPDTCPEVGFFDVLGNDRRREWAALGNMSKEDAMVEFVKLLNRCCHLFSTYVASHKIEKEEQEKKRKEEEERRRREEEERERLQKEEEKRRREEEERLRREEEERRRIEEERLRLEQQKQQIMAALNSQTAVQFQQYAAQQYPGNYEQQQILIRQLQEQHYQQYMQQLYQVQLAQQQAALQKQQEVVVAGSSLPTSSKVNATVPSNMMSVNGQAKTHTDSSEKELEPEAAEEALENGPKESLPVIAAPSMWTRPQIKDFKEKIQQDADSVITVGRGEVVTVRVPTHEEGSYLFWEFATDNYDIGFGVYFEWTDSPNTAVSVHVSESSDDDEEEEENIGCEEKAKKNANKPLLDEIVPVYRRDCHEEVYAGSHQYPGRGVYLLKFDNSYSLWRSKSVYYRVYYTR", "outline": "as §1"}, "O15318": {"molecular_target": "T11, O15318 (Homo sapiens, UniProt O15318)", "T11 construct": "endogenous in cells; host or cells: DM93", "T11 sequence (O15318 whole entry)": "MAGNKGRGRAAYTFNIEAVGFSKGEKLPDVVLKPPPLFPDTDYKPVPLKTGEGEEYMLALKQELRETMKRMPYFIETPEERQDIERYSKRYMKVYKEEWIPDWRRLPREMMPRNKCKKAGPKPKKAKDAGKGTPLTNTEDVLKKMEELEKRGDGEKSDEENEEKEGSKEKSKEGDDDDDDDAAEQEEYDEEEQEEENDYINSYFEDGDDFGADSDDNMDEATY", "outline": "as §1"}, "P06400": {"molecular_target": "T12, P06400 (Homo sapiens, UniProt P06400)", "T12 construct": "endogenous in cells; host or cells: DM93 cells (SILAC)", "outline": "as §1"}, "P25685": {"molecular_target": "T13, P25685 (Homo sapiens, UniProt P25685)", "T13 construct": "endogenous in cells; host or cells: DM93 (SILAC)", "T13 sequence (P25685 whole entry)": "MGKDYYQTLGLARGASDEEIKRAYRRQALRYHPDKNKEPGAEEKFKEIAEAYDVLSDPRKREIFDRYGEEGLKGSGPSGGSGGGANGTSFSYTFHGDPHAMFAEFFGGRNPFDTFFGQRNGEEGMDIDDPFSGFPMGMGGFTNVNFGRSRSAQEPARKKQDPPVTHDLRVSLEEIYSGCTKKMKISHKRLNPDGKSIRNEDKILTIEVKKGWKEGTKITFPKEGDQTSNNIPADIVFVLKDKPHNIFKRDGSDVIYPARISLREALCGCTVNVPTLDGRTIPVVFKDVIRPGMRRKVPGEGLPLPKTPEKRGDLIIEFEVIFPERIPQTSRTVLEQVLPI", "outline": "as §1"}, "P49585": {"molecular_target": "T14, P49585 (Homo sapiens, UniProt P49585)", "T14 construct": "endogenous in cells; host or cells: DM93 cells (SILAC)", "outline": "as §1"}, "P53992": {"molecular_target": "T15, P53992 (Homo sapiens, UniProt P53992)", "T15 construct": "endogenous in cells; host or cells: DM93 cells (SILAC)", "outline": "as §1"}, "Q9BTC8": {"molecular_target": "T16, Q9BTC8 (Homo sapiens, UniProt Q9BTC8)", "T16 construct": "endogenous in cells; host or cells: DM93 cells (SILAC), treated live; soluble proteome analysed", "outline": "as §1"}, "P50851": {"molecular_target": "T17, P50851 (Homo sapiens, UniProt P50851)", "T17 construct": "Probe-modified proteins from the soluble fraction were conjugated to a desthiobiotin-azide tag; endogenous in cells; host or cells: DM93 cells (SILAC)", "outline": "as §1"}, "Q13535": {"molecular_target": "T18, Q13535 (Homo sapiens, UniProt Q13535)", "T18 construct": "performing SuTEx compound screening directly in cells; endogenous in cells; host or cells: DM93 cells (SILAC), soluble fraction", "outline": "as §1"}}}
{"compound": "O=C(NC1CC1)c1ccc(S(=O)(=O)n2cncn2)cc1", "note": "[HHS-0101, 4-((1H-1,2,4-triazol-1-yl)sulfonyl)-N-cyclopropylbenzamide]", "values": [{"measurement": "liganded tyrosine site 396", "setting": "P51784", "value": "HHS0101.Y (tyrosine sites that showed >80% reductions (SR >5) in probe labeling in cells treated with compounds (liganded sites))"}, {"measurement": "liganded tyrosine site 628", "setting": "P53621", "value": "HHS0101.Y|HHS0401.Y|HHS0701.Y (tyrosine sites that showed >80% reductions (SR >5) in probe labeling in cells treated with compounds (liganded sites))"}, {"measurement": "liganded tyrosine site 289", "setting": "Q14978", "value": "HHS0101.Y|HHS0701.Y (tyrosine sites that showed >80% reductions (SR >5) in probe labeling in cells treated with compounds (liganded sites))"}, {"measurement": "liganded tyrosine site 541", "setting": "Q15020", "value": "HHS0101.Y|HHS0201.Y|HHS0301.Y|HHS0401.Y|HHS0701.Y (tyrosine sites that showed >80% reductions (SR >5) in probe labeling in cells treated with compounds (liganded sites))"}]}
{"compound": "O=C(NCC1CC1)c1ccc(S(=O)(=O)n2cncn2)cc1", "note": "[HHS-0201, 4-((1H-1,2,4-triazol-1-yl)sulfonyl)-N-(cyclopropylmethyl)benzamide]", "values": [{"measurement": "liganded tyrosine site 570", "setting": "O60506", "value": "HHS0201.Y|HHS0301.Y|HHS0401.Y|HHS0701.Y (tyrosine sites that showed >80% reductions (SR >5) in probe labeling in cells treated with compounds (liganded sites))"}, {"measurement": "liganded tyrosine site 473", "setting": "P48147", "value": "HHS0201.Y (tyrosine sites that showed >80% reductions (SR >5) in probe labeling in cells treated with compounds (liganded sites))"}, {"measurement": "liganded tyrosine site 582", "setting": "Q00341", "value": "HHS0201.Y (tyrosine sites that showed >80% reductions (SR >5) in probe labeling in cells treated with compounds (liganded sites))"}, {"measurement": "liganded tyrosine site 685", "setting": "Q86XP3", "value": "HHS0201.Y (tyrosine sites that showed >80% reductions (SR >5) in probe labeling in cells treated with compounds (liganded sites))"}, {"measurement": "liganded tyrosine site 273", "setting": "Q99797", "value": "HHS0201.Y (tyrosine sites that showed >80% reductions (SR >5) in probe labeling in cells treated with compounds (liganded sites))"}, {"measurement": "liganded tyrosine site 293", "setting": "Q9H3P7", "value": "HHS0201.Y|HHS0301.Y (tyrosine sites that showed >80% reductions (SR >5) in probe labeling in cells treated with compounds (liganded sites))"}]}
{"compound": "O=C(NC1CCCCC1)c1ccc(S(=O)(=O)n2cncn2)cc1", "note": "[HHS-0301, 4-((1H-1,2,4-triazol-1-yl)sulfonyl)-N-cyclohexylbenzamide]", "values": [{"measurement": "liganded tyrosine site 43", "setting": "O15318", "value": "HHS0301.Y|HHS0401.Y (tyrosine sites that showed >80% reductions (SR >5) in probe labeling in cells treated with compounds (liganded sites))"}, {"measurement": "liganded tyrosine site 56", "setting": "O15318", "value": "HHS0301.Y (tyrosine sites that showed >80% reductions (SR >5) in probe labeling in cells treated with compounds (liganded sites))"}, {"measurement": "liganded tyrosine site 91", "setting": "P06400", "value": "HHS0301.Y|HHS0701.Y (tyrosine sites that showed >80% reductions (SR >5) in probe labeling in cells treated with compounds (liganded sites))"}, {"measurement": "liganded tyrosine site 52", "setting": "P25685", "value": "HHS0301.Y (tyrosine sites that showed >80% reductions (SR >5) in probe labeling in cells treated with compounds (liganded sites))"}, {"measurement": "liganded tyrosine site 173", "setting": "P49585", "value": "HHS0301.Y (tyrosine sites that showed >80% reductions (SR >5) in probe labeling in cells treated with compounds (liganded sites))"}, {"measurement": "liganded tyrosine site 300", "setting": "P53992", "value": "HHS0301.Y (tyrosine sites that showed >80% reductions (SR >5) in probe labeling in cells treated with compounds (liganded sites))"}, {"measurement": "liganded tyrosine site 22", "setting": "Q9BTC8", "value": "HHS0301.Y (tyrosine sites that showed >80% reductions (SR >5) in probe labeling in cells treated with compounds (liganded sites))"}]}
{"compound": "O=C(NCc1ccccc1)c1ccc(S(=O)(=O)n2cncn2)cc1", "note": "[HHS-0401, 4-((1H-1,2,4-triazol-1-yl)sulfonyl)-N-benzylbenzamide]", "values": [{"measurement": "liganded tyrosine site 2656", "setting": "P50851", "value": "HHS0401.Y (tyrosine sites that showed >80% reductions (SR >5) in probe labeling in cells treated with compounds (liganded sites))"}]}
{"compound": "O=C(c1ccc(S(=O)(=O)n2cncn2)cc1)N1CCC(c2ccccc2)CC1", "note": "[HHS-0701, (4-((1H-1,2,4-triazol-1-yl)sulfonyl)phenyl)(4-phenylpiperidin-1-yl)methanone]", "values": [{"measurement": "liganded tyrosine site 2067", "setting": "Q13535", "value": "HHS0701.Y (tyrosine sites that showed >80% reductions (SR >5) in probe labeling in cells treated with compounds (liganded sites))"}]}
